Paper PMC10376059, “New NADPH Oxidase 2 Inhibitors Display Potent Activity against Oxidative Stress by Targeting p22^phox-p47^phox Interactions” (Antioxidants, 2023)

Columns and labels:
[1] = test system: cardiomyocytes isolated from mdx mice; test: NOX2-mediated ROS production (DCF-DA, confocal) in mdx cardiomyocytes; assay type: cell-based, mouse; conditions: 20 µM
Source text: Cardiomyocytes were isolated from mdx mice (C57BL/10ScSn-DMDmdx/J, stock number 001801M, Jackson Laboratories, Bar Harbor, […], USA). Male mdx mice of 19 months of age were used, which were housed in individual cages with water and food ad libitum. All the procedures were adjusted to the “Guide for the Care and Use of Laboratory Animals” (1996) of the National Institute of Health and were approved by the Institutional Committee for Animal Care and Use of the Universidad de Talca. Mice were pre-medicated with heparin i.p. (200U.) and then sacrificed by cervical dislocation. The heart was rapidly removed, cannulated through the aorta, and retrogradely perfused in a steady flow (2 mL/min) at 37 °C. The hearts were initially perfused for 10 min with a Ca^2+-free bicarbonate buffer solution containing (in mM) 120 NaCl; 5.4 KCl; 1.2 MgSO4; 1.2 NaH2PO4; 5.6 glucose; 20 NaHCO3; 10 BDM, and 5 taurine, bubbled with a 95% O2–5% CO2 mixture. Enzyme digestion was performed with collagenase type II (1 mg/mL; Worthington Biochemical Corp., Lakewood, NJ, USA) and protease type XIV (0.1 mg/mL; Sigma-Aldrich) as previously reported. Isolated cardiomyocytes were transferred to 1.5 mL Eppendorf tubes and preincubated with the heteroaryl acrylonitrile compounds.
Cardiomyocytes isolated from mdx mice were transferred to Eppendorf tubes to be incubated with 1 μM of the indole heteroaryl-acrylonitrile derivatives for 30 min, protected from light, at room temperature. VAS2870 (20 μM) was used as a positive control for NOX2 inhibition. 2′,7′-dichlorofluorescein diacetate (DCF-DA) (10 μM) was then added and incubated for 15 min. Subsequently, it was allowed to sediment by gravity to remove the supernatant, and the pellets obtained were in a phosphate saline solution (PBS). 200 μL of the cell suspension were placed on pre-treated polylysine slides (Thermo Fischer, USA) and fixed with 2% paraformaldehyde (Sigma-Aldrich®, St. Louis, MO, USA) for 10 min at 4 °C. […] From the acquired images, the fluorescence intensity was quantified at 495 nm, and the data were reported as fluorescence intensity per pixel.

p47^phox = biological target: T1, p47^phox (Homo sapiens, UniProt P14598); test: p47phox translocation from cytosol to membrane (Western blot) in PMA-stimulated HL-60 differentiated cells; assay type: cell-based; conditions: PMA 0.8 µM, 20 µM
T1 construct: we evaluated p47^phox translocation from the cytosol to the membrane in HL-60 differentiated cells; endogenous in cells; host or cells: neutrophil-differentiated HL-60 cells treated with PMA; membrane and cytosolic fractions obtained by cryo-fracture
T1 sequence (P14598 1-390): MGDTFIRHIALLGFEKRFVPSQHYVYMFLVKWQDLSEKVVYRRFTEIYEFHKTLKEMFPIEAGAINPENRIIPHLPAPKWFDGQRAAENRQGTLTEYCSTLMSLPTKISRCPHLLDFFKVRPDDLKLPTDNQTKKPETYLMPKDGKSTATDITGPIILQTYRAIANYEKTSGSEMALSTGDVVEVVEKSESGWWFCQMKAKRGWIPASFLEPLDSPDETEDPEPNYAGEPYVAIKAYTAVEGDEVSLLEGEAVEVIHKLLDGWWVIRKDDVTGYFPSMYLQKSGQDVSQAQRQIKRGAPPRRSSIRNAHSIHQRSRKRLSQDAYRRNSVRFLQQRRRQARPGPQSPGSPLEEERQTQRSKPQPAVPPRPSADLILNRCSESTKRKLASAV
Method: Neutrophil-differentiated HL-60 cells (2 × 10^6 cells/mL) were incubated at 37 °C in a humid atmosphere with 5% CO2 and 50 μM of the different acrylonitrile compounds, then PMA 0.8 μM was added and incubated for 1 h to induce the activation of the enzyme NADPH oxidase. As a positive inhibition control, VAS2870 (20 μM) was used. Another two controls were performed: one with cells activated by PMA in the presence of DMSO, and the other (NA, non-activated) with cells in the absence of PMA and the acrylonitrile compounds. In 15 mL conical tubes, 5 mL of cell suspension from each treatment and control condition was transferred at 2 × 10^6 cells/mL and centrifuged at 1000 rpm at 4 °C for 10 min. The supernatant was then discarded, and each pellet was re-suspended in 2 mL of a 4% PBS solution with 2 mM EGTA and 0.25 mM PMSF frozen at −80 °C for 10 min. Then each pellet was thawed on ice. After this, the cell suspension was passed through a glass tissue homogenizer (Deltalab®, I.C.T, S.L, La Rioja, Spain) 20 times. The freezing-thawing and homogenization processes were repeated three times. Finally, the homogenate was centrifuged at 15,000 rpm at 4 °C for 15 min. The supernatant (cytosolic fraction) was removed from the pellet (membranes were prepared). A fraction was removed for the determination of total proteins, and the remainder was stored at −80 °C for further analysis. […]

isolated rat hearts = test: Ischemia-reperfusion in isolated rat heart (Langendorff); conditions: 100 µM, TTC staining

SMILES	NOX2-derived ROS, DCF (in words) [1]	translocation of p47phox to the membrane (in words) (p47^phox)	infarcted area (in words) (isolated rat hearts)
c1ccc(Cn2nnc3c(Sc4nc5ccccc5o4)ncnc32)cc1 [VAS2870, 7-(1,3-Benzoxazol-2-ylsulfanyl)-3-benzyl-3H-[1,2,3]triazolo [4,5-d]pyrimidine, reference compound]	reduced	significantly reduced the translocation of p47^phox to the membrane	
COc1cc(C(C)=O)ccc1O [apocynin]			reduced the infarcted area
